Data published in paper PMC4042160, “In silico, in vitro and cellular analysis with a kinome-wide inhibitor panel correlates cellular LRRK2 dephosphorylation to inhibitor activity on LRRK2” (Frontiers in Molecular Neuroscience, 2014).
Values joined by “and” are separate entries in the source; they are usually repeats but may differ in a detail not shown here. Equal values may be shown once.

Assays:
[1] = target: T1, LRRK2 phospho-Ser935 (Homo sapiens, UniProt Q5S007); assay: Cellular LRRK2 phosphoserine 935 dephosphorylation spotblot assay in SH-SY5Y cells stably expressing 3xFlag-LRRK2; format: cell-based; details: for Phosphorylation level relative to solvent (%) (cellular pS935 assay): @ 5 μM for 2 h, SH-SY5Y stably expressing LRRK2, pS935/total LRRK2; for dephosphorylation of LRRK2 (Ser935): 5 μM, 2 h, SH-SY5Y
T1 construct: expressed in transfected cells

[2] = target: T2, GST-tagged truncated LRRK2 containing residues 970 to 2527 (Homo sapiens, UniProt Q5S007); assay: In vitro LRRKtide peptide-substrate kinase assay, single dose testing (10 μM); format: biochemical; details: for % LRRKtide phosphorylation relative to solvent: LRRKtide assay @ 10 μM inhibitor, GST-LRRK2 970-2527, 10 μM ATP, mean, N = 3, solvent control = 100%; for activity on LRRK2 kinase activity in vitro (in words): no activity at 10 μM
T2 construct: GST-tagged truncated LRRK2 containing residues 970 to 2527 (Life Technologies); purchased Life Technologies
T2 sequence (Q5S007 970-2527): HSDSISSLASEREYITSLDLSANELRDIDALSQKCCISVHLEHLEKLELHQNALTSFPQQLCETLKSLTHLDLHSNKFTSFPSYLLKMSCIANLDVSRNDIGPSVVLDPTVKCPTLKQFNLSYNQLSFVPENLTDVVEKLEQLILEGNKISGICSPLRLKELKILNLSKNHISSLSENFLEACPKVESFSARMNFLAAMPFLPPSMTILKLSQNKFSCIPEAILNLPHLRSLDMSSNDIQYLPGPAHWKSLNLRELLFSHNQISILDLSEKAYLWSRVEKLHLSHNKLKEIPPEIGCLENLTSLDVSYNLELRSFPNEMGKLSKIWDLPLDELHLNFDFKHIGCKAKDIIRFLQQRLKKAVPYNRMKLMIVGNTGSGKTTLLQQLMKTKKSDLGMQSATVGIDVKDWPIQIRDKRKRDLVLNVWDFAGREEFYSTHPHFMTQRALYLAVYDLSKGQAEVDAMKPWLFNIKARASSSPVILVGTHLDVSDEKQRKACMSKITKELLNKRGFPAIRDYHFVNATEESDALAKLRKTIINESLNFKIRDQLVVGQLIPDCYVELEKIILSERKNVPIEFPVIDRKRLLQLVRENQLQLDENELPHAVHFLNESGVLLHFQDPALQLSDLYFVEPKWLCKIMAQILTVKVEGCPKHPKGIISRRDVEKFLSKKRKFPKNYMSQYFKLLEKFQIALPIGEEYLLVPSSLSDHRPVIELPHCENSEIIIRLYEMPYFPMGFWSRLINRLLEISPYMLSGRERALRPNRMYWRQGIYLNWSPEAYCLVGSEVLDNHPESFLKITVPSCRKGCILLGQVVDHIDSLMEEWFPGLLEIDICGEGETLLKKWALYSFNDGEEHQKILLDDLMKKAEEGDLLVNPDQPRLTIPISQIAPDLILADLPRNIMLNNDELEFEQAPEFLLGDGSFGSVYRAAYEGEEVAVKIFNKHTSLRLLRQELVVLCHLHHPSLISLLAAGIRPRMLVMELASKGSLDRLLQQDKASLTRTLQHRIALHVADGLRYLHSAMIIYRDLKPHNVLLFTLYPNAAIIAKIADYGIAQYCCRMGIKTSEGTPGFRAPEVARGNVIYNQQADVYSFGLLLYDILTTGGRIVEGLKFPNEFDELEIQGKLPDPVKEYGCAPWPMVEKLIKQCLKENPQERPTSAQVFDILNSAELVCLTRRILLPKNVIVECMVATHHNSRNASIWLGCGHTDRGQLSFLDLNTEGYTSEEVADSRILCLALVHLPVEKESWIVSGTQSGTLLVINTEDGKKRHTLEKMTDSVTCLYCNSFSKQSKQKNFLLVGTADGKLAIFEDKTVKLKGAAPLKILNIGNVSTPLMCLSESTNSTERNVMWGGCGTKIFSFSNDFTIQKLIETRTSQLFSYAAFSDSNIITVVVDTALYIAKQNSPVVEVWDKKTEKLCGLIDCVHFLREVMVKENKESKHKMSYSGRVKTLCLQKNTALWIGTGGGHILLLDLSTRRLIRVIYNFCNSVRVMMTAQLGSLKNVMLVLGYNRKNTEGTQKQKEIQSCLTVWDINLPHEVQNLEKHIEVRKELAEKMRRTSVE

T1 sequence (Q5S007 whole entry): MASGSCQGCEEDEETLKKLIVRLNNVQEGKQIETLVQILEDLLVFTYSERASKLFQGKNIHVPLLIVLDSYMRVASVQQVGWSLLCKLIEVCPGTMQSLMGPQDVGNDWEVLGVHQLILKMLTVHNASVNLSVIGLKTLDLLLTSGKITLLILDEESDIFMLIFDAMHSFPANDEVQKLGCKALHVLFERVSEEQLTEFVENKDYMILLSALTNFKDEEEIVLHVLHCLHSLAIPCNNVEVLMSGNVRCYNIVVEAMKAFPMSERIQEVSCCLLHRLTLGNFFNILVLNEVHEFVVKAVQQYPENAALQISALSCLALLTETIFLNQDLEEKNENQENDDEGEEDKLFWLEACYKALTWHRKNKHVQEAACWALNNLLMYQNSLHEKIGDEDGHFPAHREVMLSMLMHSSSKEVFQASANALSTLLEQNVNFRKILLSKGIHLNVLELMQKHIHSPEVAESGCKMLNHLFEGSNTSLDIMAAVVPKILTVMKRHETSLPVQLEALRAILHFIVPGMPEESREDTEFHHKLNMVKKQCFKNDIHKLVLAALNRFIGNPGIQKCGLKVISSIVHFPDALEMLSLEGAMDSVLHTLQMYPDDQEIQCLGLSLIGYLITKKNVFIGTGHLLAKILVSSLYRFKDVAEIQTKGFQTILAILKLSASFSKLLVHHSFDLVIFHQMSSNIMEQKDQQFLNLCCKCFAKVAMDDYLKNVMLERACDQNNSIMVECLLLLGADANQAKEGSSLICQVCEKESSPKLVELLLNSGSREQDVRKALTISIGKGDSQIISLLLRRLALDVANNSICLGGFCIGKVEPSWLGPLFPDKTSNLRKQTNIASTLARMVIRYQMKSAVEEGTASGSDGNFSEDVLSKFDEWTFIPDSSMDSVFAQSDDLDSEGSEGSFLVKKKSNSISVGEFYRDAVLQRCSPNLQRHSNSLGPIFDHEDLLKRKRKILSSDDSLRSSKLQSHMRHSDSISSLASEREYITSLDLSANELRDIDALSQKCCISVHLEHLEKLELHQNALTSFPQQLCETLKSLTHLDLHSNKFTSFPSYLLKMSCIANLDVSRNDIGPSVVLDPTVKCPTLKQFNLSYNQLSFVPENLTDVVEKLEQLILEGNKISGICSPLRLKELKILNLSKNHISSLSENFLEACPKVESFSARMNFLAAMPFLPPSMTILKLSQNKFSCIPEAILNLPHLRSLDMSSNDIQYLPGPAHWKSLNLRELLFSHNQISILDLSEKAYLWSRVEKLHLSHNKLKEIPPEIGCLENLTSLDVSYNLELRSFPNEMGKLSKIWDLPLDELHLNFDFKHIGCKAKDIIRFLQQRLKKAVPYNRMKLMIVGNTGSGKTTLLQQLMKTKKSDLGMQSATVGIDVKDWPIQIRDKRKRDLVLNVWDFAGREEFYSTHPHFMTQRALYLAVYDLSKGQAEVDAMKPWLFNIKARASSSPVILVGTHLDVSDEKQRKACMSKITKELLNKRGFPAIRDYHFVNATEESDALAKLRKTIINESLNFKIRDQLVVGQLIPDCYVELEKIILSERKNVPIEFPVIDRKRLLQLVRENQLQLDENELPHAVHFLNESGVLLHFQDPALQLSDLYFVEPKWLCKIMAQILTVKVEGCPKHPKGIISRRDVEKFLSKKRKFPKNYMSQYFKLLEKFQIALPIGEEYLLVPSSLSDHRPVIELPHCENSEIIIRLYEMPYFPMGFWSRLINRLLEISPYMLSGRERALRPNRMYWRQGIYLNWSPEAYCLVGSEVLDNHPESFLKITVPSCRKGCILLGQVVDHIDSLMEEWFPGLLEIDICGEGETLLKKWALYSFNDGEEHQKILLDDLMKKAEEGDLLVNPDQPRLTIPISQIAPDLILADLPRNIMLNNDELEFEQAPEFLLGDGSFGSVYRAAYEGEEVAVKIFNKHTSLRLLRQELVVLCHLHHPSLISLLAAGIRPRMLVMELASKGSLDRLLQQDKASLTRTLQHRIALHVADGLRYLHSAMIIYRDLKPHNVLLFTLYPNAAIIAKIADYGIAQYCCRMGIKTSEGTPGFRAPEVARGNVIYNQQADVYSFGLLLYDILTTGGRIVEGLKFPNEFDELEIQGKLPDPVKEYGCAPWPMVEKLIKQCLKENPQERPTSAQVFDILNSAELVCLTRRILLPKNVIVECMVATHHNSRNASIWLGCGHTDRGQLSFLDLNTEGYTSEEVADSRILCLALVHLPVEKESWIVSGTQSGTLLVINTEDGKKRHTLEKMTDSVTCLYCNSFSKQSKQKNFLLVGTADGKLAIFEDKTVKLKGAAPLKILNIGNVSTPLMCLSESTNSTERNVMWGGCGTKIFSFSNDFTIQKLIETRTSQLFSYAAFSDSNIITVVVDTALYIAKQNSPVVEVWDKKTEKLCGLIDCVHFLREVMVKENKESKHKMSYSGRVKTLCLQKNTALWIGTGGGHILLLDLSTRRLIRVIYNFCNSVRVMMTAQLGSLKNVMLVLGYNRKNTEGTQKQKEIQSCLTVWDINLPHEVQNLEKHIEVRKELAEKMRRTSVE

## COC(=O)[C@@]1(O)C[C@H]2O[C@]1(C)n1c3ccccc3c3c4c(c5c6ccccc6n2c5c31)C(=O)NC4 [K-252a, Nocardiopsis sp., K-252a]
[1]
  Phosphorylation level relative to solvent (%) (cellular pS935 assay): 72.18%
[2]
  % LRRKtide phosphorylation relative to solvent: 1.13%

## CCCC(=O)Oc1ccc2[nH]c(C(=O)c3cc4ccccc4[nH]3)cc2c1 [PDGF receptor tyrosine kinase inhibitor II]
[1]
  Phosphorylation level relative to solvent (%) (cellular pS935 assay): 65.41%
[2]
  % LRRKtide phosphorylation relative to solvent: 93.77%

## N#Cc1cnc2cnc(NCc3cccnc3)cc2c1Nc1ccc(F)c(Cl)c1 [Tpl2 kinase inhibitor]
[1]
  Phosphorylation level relative to solvent (%) (cellular pS935 assay): 102.54%
[2]
  % LRRKtide phosphorylation relative to solvent: 55.04%

## O=c1cc(-c2cccc3c2Sc2ccccc2S3)oc(N2CCOCC2)c1 [ATM kinase inhibitor]
[1]
  Phosphorylation level relative to solvent (%) (cellular pS935 assay): 103.28%
[2]
  % LRRKtide phosphorylation relative to solvent: 86.09%

## O=C1Cc2c([nH]c3ccc(Br)cc23)-c2ccccc2N1 [Kenpaullone]
[1]
  Phosphorylation level relative to solvent (%) (cellular pS935 assay): 94.10%
[2]
  % LRRKtide phosphorylation relative to solvent: 47.16%

## O=C1NC(=O)c2c1c1c3ccccc3[nH]c1c1[nH]c3cc(Br)ccc3c21 [Cdk4 inhibitor]
[1]
  Phosphorylation level relative to solvent (%) (cellular pS935 assay): 49.88%
[2]
  % LRRKtide phosphorylation relative to solvent: 6.82%

## COc1ccc(CNC(=O)Nc2ncc([N+](=O)[O-])s2)cc1 [GSK-3b inhibitor VIII]
[1]
  Phosphorylation level relative to solvent (%) (cellular pS935 assay): 115.21%
[2]
  % LRRKtide phosphorylation relative to solvent: 128.15%

## O=C1c2ccccc2-c2n[nH]c3cccc1c23 [JNK inhibitor II]
[1]
  Phosphorylation level relative to solvent (%) (cellular pS935 assay): 81.52%
[2]
  % LRRKtide phosphorylation relative to solvent: 2.32%

## CC(C)N(CCC(=O)c1ccc2ccccc2c1)Cc1ccccc1 [JAK3 inhibitor IV]
[1]
  Phosphorylation level relative to solvent (%) (cellular pS935 assay): 63.71%
[2]
  % LRRKtide phosphorylation relative to solvent: 90.96%

## O=C1Nc2ccc(Cl)cc2/C1=C/c1cc(Cl)c(O)c(Cl)c1 [PKR inhibitor, negative control]
[1]
  Phosphorylation level relative to solvent (%) (cellular pS935 assay): 72.69%
[2]
  % LRRKtide phosphorylation relative to solvent: 1.07%

## Nc1[nH]nc2nc3ccccc3nc12 [Cdk1/5 inhibitor]
[1]
  Phosphorylation level relative to solvent (%) (cellular pS935 assay): 123.99%
[2]
  % LRRKtide phosphorylation relative to solvent: 25.04%

## CO[C@H]1[C@@H](OC)C[C@H](C)[C@@H](OC)C2=CC(=O)C=C(NC(=O)/C(C)=C/C=C\[C@H](OC)[C@@H](OC(N)=O)/C(C)=C/[C@@H]1C)C2=O [Herbimycin A, Streptomyces sp., Herbimycin A]
[1]
  Phosphorylation level relative to solvent (%) (cellular pS935 assay): 92.79%
[2]
  % LRRKtide phosphorylation relative to solvent: 103.97%

## Cn1sc(=O)n(Cc2ccccc2)c1=O [GSK-3b inhibitor I]
[1]
  Phosphorylation level relative to solvent (%) (cellular pS935 assay): 95.90%
[2]
  % LRRKtide phosphorylation relative to solvent: 106.35%

## N#C/C(=C(/N)SC1C=CC=CC1)c1cccc(C(O)c2ccncc2)c1 (stereo not drawn) [MEK inhibitor I]
[1]
  Phosphorylation level relative to solvent (%) (cellular pS935 assay): 100.55%
[2]
  % LRRKtide phosphorylation relative to solvent: 124.71%

## Cc1ccc(NC2=CC(=O)c3sc(C)nc3C2=O)cc1 [Cdk4 inhibitor III]
[1]
  Phosphorylation level relative to solvent (%) (cellular pS935 assay): 48.63%
[2]
  % LRRKtide phosphorylation relative to solvent: 26.80%

## NC(=O)c1cccc(-c2cc(Nc3ccc(OC(F)(F)F)cc3)ncn2)c1 [Bcr-abl inhibitor]
[1]
  Phosphorylation level relative to solvent (%) (cellular pS935 assay): 78.83%
[2]
  % LRRKtide phosphorylation relative to solvent: 82.04%

## Cc1nc2cc3nc(-c4cccs4)cnc3cc2n1C [AGL 2043]
[1]
  Phosphorylation level relative to solvent (%) (cellular pS935 assay): 90.06%
[2]
  % LRRKtide phosphorylation relative to solvent: 29.68%

## O=c1[nH]c2ccccc2n1C1CCN(Cc2ccc(-c3nc4cc5nc[nH]c5cc4nc3-c3ccccc3)cc2)CC1 [Akti-1/2]
[1]
  Phosphorylation level relative to solvent (%) (cellular pS935 assay): 77.80%
[2]
  % LRRKtide phosphorylation relative to solvent: 99.69%

## c1ccc(-c2[nH]ncc2-c2ccnc3ccccc23)nc1 [TGF-b RI kinase inhibitor]
[1]
  Phosphorylation level relative to solvent (%) (cellular pS935 assay): 71.73%
[2]
  % LRRKtide phosphorylation relative to solvent: 47.94%

## Nc1nccc(-c2c(-c3ccc(F)cc3)ncn2C2CCNCC2)n1 [SB 220025]
[1]
  Phosphorylation level relative to solvent (%) (cellular pS935 assay): 70.97%
[2]
  % LRRKtide phosphorylation relative to solvent: 73.68%

## NC(=O)Nc1sc(-c2ccc(F)cc2)cc1C(N)=O [IKK-2 inhibitor IV]
[1]
  Phosphorylation level relative to solvent (%) (cellular pS935 assay): 108.38%
[2]
  % LRRKtide phosphorylation relative to solvent: 5.13%

## O=C1NC(=O)c2c1c1c3ccccc3[nH]c1n1cncc21 [Isogranulatimide]
[1]
  Phosphorylation level relative to solvent (%) (cellular pS935 assay): 77.38%
[2]
  % LRRKtide phosphorylation relative to solvent: 4.64%

## CC(C)(C)c1cc(C=C(C#N)C#N)cc(Br)c1O [AG 1024]
[1]
  Phosphorylation level relative to solvent (%) (cellular pS935 assay): 94.37%
[2]
  % LRRKtide phosphorylation relative to solvent: 51.38%

## CN(C)CCCn1cc(C2=C(c3c[nH]c4ccccc34)C(=O)NC2=O)c2ccccc21 [Bisindolylmaleimide I]
[1]
  Phosphorylation level relative to solvent (%) (cellular pS935 assay): 73.14%
[2]
  % LRRKtide phosphorylation relative to solvent: 4.46%

## c1cc(-c2cnn3cc(-c4ccc(OCCN5CCCCC5)cc4)cnc23)ccn1 [AMPK inhibitor, compound C]
[1]
  Phosphorylation level relative to solvent (%) (cellular pS935 assay): 112.70%
[2]
  % LRRKtide phosphorylation relative to solvent: 24.40%

## COc1ccc2c(c[n+](C)c3c4cc5c(cc4ccc23)OCO5)c1OC [Chelerythrine chloride]
[1]
  Phosphorylation level relative to solvent (%) (cellular pS935 assay): 67.25%
[2]
  % LRRKtide phosphorylation relative to solvent: 77.91%

## O=C(Nc1cccc(Nc2nccc(Nc3cccc(C(F)(F)F)c3)n2)c1)C1CC1 [Aurora kinase inhibitor III]
[1]
  dephosphorylation of LRRK2 (Ser935): ~ 50%
[2]
  % LRRKtide phosphorylation relative to solvent: 83.96% and 44.16%
  activity on LRRK2 kinase activity in vitro (in words): inactive

## CC(C)(C)n1nc(Cc2cccc3ccccc23)c2c(N)ncnc21 [PP1 analog II, 1NM-PP1, 1NM-PP1]
[1]
  Phosphorylation level relative to solvent (%) (cellular pS935 assay): 68.59%
[2]
  % LRRKtide phosphorylation relative to solvent: 44.14%

## CC#CC(=O)Nc1cc2c(Nc3ccc(F)c(Cl)c3)ncnc2cn1 [EGFR/ErbB-2/ErbB-4 inhibitor]
[1]
  Phosphorylation level relative to solvent (%) (cellular pS935 assay): 69.18%
[2]
  % LRRKtide phosphorylation relative to solvent: 81.86%

## N#C/C(=C(/N)Sc1ccc(N)cc1)c1ccccc1C(F)(F)F [MEK 1/2 inhibitor]
[1]
  Phosphorylation level relative to solvent (%) (cellular pS935 assay): 117.92%
[2]
  % LRRKtide phosphorylation relative to solvent: 61.26%

## CC(=O)c1ccc(N2CCOCC2)cc1O [DNA-PK inhibitor III]
[1]
  Phosphorylation level relative to solvent (%) (cellular pS935 assay): 71.78%
[2]
  % LRRKtide phosphorylation relative to solvent: 68.41%

## Cn1c2ccccc2c2c3c(c4c5ccccc5n(CCC#N)c4c21)CNC3=O [Gö 6976]
[1]
  Phosphorylation level relative to solvent (%) (cellular pS935 assay): 56.41%
[2]
  % LRRKtide phosphorylation relative to solvent: 5.79%

## COc1ccc2c(c1)c(C1=C(c3c[nH]c4ccccc34)C(=O)NC1=O)cn2CCCN(C)C [Gö 6983]
[1]
  Phosphorylation level relative to solvent (%) (cellular pS935 assay): 70.11%
[2]
  % LRRKtide phosphorylation relative to solvent: 3.04%

## O=C1Cc2c([nH]c3ccc([N+](=O)[O-])cc23)-c2ccccc2N1 [Alsterpaullone]
[1]
  Phosphorylation level relative to solvent (%) (cellular pS935 assay): 108.54%
[2]
  % LRRKtide phosphorylation relative to solvent: 31.34%

## Cc1cncc2cccc(S(=O)(=O)N3CCCN(C(=O)CN)C[C@@H]3C)c12 [Rho kinase inhibitor IV]
[1]
  Phosphorylation level relative to solvent (%) (cellular pS935 assay): 59.98%
[2]
  % LRRKtide phosphorylation relative to solvent: 10.29%

## O=c1[nH][nH]c2nnc(-c3c(-c4ccccc4)nn4ccccc34)cc12 [ERK inhibitor II, negative control]
[1]
  Phosphorylation level relative to solvent (%) (cellular pS935 assay): 77.12%
[2]
  % LRRKtide phosphorylation relative to solvent: 97.07%

## O=C1NC(=O)C(c2c[nH]c3ccccc23)=C1c1c[nH]c2ccccc12 [Bisindolylmaleimide IV]
[1]
  Phosphorylation level relative to solvent (%) (cellular pS935 assay): 84.51%
[2]
  % LRRKtide phosphorylation relative to solvent: 3.07%

## CC[n+]1c(/C=C/N(C)c2ccccc2)n(-c2ccccc2)c2ccc(-c3nc4ccccc4s3)cc21.[I-] [Akt inhibitor IV]
[1]
  Phosphorylation level relative to solvent (%) (cellular pS935 assay): 76.44%
[2]
  % LRRKtide phosphorylation relative to solvent: 18.59%

## Nc1ncnc2n[nH]c(Nc3ccc(F)cc3)c12 [MNK1 inhibitor]
[1]
  Phosphorylation level relative to solvent (%) (cellular pS935 assay): 70.32%
[2]
  % LRRKtide phosphorylation relative to solvent: 12.59%

## Cc1ccc(S(=O)(=O)/C=C/C#N)cc1 [BAY 11-7082]
[1]
  dephosphorylation of LRRK2 (Ser935): ~ 50%
  Phosphorylation level relative to solvent (%) (cellular pS935 assay): 47.14%
[2]
  % LRRKtide phosphorylation relative to solvent: 132.94%
  activity on LRRK2 kinase activity in vitro (in words): inactive

## O=C1NC(=O)C(c2cn(CCCn3ccnc3)c3ccccc23)=C1Nc1ccccc1 [PKCb inhibitor]
[1]
  Phosphorylation level relative to solvent (%) (cellular pS935 assay): 86.12%
[2]
  % LRRKtide phosphorylation relative to solvent: 3.56%

## CCN(CC)C(=O)c1ccc(Nc2nc(OCC3CCCCC3)c3[nH]cnc3n2)cc1 [Cdk2 inhibitor IV, NU6140, NU6140]
[1]
  Phosphorylation level relative to solvent (%) (cellular pS935 assay): 34.63%
[2]
  % LRRKtide phosphorylation relative to solvent: 0.98%

## O=C(c1ccccc1)c1ccc(N2CCOCC2)cc1O [DNA-PK inhibitor V]
[1]
  dephosphorylation of LRRK2 (Ser935): ~ 50%
  Phosphorylation level relative to solvent (%) (cellular pS935 assay): 48.36%
[2]
  % LRRKtide phosphorylation relative to solvent: 89.01%
  activity on LRRK2 kinase activity in vitro (in words): inactive

## CCN(CC)CCCCN1c2ccccc2Oc2ccc(Cl)cc21 [Akt inhibitor X]
[1]
  Phosphorylation level relative to solvent (%) (cellular pS935 assay): 69.13%
[2]
  % LRRKtide phosphorylation relative to solvent: 61.91%

## O=[N+]([O-])/C=C/c1ccc2c(c1)OCO2 [Syk inhibitor III]
[1]
  Phosphorylation level relative to solvent (%) (cellular pS935 assay): 68.01%
[2]
  % LRRKtide phosphorylation relative to solvent: 82.95%

## Cc1cccc(-c2[nH]c(C(C)(C)C)nc2-c2ccc3c(c2)OCO3)n1 [TGF-b RI inhibitor III]
[1]
  Phosphorylation level relative to solvent (%) (cellular pS935 assay): 57.95%
[2]
  % LRRKtide phosphorylation relative to solvent: 104.37%

## O=c1c2ccccc2[nH]c(=S)n1CCN1CCC(=C(c2ccc(F)cc2)c2ccc(F)cc2)CC1 [Diacylglycerol kinase inhibitor II]
[1]
  Phosphorylation level relative to solvent (%) (cellular pS935 assay): 84.54%
[2]
  % LRRKtide phosphorylation relative to solvent: 119.82%
